Experimental findings from patent US11780842B2, “TYK2 pseudokinase ligands” (Ventyx Biosciences, Inc., priority 2019, dated 2023) are described below.

What is called IC50 is the midpoint of a concentration-inhibition curve.

The test concerns IFN-a/Jak1Tyk2. Put plainly: Co-stimulation assay in lysed whole blood: IFNa (JAK1/TYK2) stimulated STAT1 phosphorylation. The class given is cell-based. The note with it: lysed human whole blood, IFNa 100 ng/mL (co-stimulated with GM-CSF 10 ng/mL), pSTAT1 by flow cytometry. As to the method:
Example 4: Co-Stimulation Assay in Lysed Whole Blood; JAK2: GM-CSF Stimulated STATS Phosphorylation and JAK1/TYK2 Stimulated STAT1 Phosphorylation Assay
Human Blood Lysis Using Abcam's RBC Lysis Buffer
Dilute RBC lysis buffer to 1× in distilled water. Add 2 mL blood to 38 mL of 1×RBC-lysis buffer. Incubate for 15 mins at RT, in dark. Spin at 300 g, 5 mins, to collect the pellet. Re-lyse if necessary. Re-suspend pellet in 5 mL of cRPMI.
Compound and Cytokine Treatment
Aliquot 80 μL of lysed human blood in to wells of 96 deep-well plate. Add 10 μl of (10× conc.) of different concentrations of compounds to all wells except controls (unstained and unstimulated) and mix it with the help of 100 uL multichannel. Add 10 uL of RPMI media in controls. For dilution of compounds and dilution range please refer Appendix. Incubate on water bath or CO2 incubator for 1 hour at 37° C. Add 10 μL of (10× conc.) of cytokine mix (GM-CSF and IFNa) (final conc. 10 ng/mL of GM-CSF and 100 ng/mL of IFNa) to each well except unstimulated and unstained controls and incubate further for 20 minutes on water bath at 37° C.
Add 900 μL of prewarmed 1× Fix/Lyse solution (Appendix) and mix it properly using 1000 μl multichannel, incubate further on water bath at 37° C. for 10 minutes (which includes time of addition). Centrifuge at 800× g for 5 minutes at 40° C.; remove 900 uL of supernatant and add 900 μL of 1×PBS. Centrifuge at 800× g for 5 minutes at 40° C., remove 900 μL of supernatant. Wash one more time with 900 μL of PBS (optional) and resuspend pellets in 100 uL of PBS.
Disrupt the pellet by gentle tapping and resuspend in 1000 μL of BD Phosflow Perm Buffer III and incubate plate on ice for 30 minutes. Centrifuge plate at 800× g for 5 minutes at 40° C. Wash two more times with 1000 μL of BD Pharmingen Stain Buffer.
Disrupt the pellet by gentle tapping. Resuspend pellets in 100 uL of Stain Buffer and add 5 μL of pSTAT5_AF488 Ab and 5 uL of pSTAT1_PE in all wells except unstained control and mix properly using 200 μl multichannel, incubate overnight at […]. Add 900 μL of wash buffer and centrifuge at 1800 rpm for 3 minutes at […]. Wash one more time with 1000 μL of BD Pharmingen Stain Buffer. Finally resuspend the pellet in 300 uL of BD Pharmingen Stain Buffer. Transfer the cells to 96-well v-bottom plate and acquire the cells in Beckman Coulter CytExpert. Acquiring cells in Flow Cytometer: Keep the threshold value to 250 and cell concentration should not exceed 100-500 cells/μL. Acquire at least 5,000-10,000 cells.
RPMI 1640 Complete Medium: RPMI 1640 media+10% FBS.
Cytokine dilution: 1) GM-CSF Stock at 100 ug/mL. Prepare an intermediate dilution of 1 ug/mL by adding 2 uL of stock into 198 uL of cRPMI. Further dilute to 100 ng/mL by adding 100 uL of the intermediate stock to 900 uL of cRPMI. 2) IFNa Stock at 200 ug/mL. Dilute IFNa stock 1:200 by adding 5 uL of stock into the 1000 uL of 100 ng/mL GM-CSF working stock as above to give a combined working stock of 1000 ng/mL of IFNa and 100 ng/mL GM-CSF (lox). Keep it on ice until used.
Lyse/Fix buffer preparation: Dilute 5× Lyse/Fix buffer to 1× using MQ water and keep at 37° C. until used.
BD Phosflow perm buffer III: Keep on ice/fridge.
A general note: Flow cytometry measures light scatter and fluorescence of single cells or particles in a stream.

`CNc1cc2nc3c(cnn13)C(=O)NCCOc1cc(cc(F)c1F)N2` [Compound 28, (1^3E,1^4E)-3^4,3^5-difluoro-1^7-(methylamino)-4-oxa-2,7-diaza-1(5,3)-pyrazolo[1,5-a]pyrimidina-3(1,3)-benzenacyclooctaphan-8-one]: the IC50 fell in the range of 0.1 to 1 µM.

`CNc1cc2nc3c(cnn13)C(=O)NCCCc1cc(O)cc(c1)N2` [Compound 38, (1^3E,1^4E)-3^5-hydroxy-1^7-(methylamino)-2,7-diaza-1(5,3)-pyrazolo[1,5-a]pyrimidina-3(1,3)-benzenacyclooctaphan-8-one]: the IC50 was 1 to 10 µM.

`CNc1cc2nc3c(cnn13)C(=O)NCC(C)(C)c1cccc(c1)N2` [Compound 13, (1^3E,1^4E)-4,4-dimethyl-1^7-(methylamino)-2,6-diaza-1(5,3)-pyrazolo[1,5-a]pyrimidina-3(1,3)-benzenacycloheptaphan-7-one]: the half-maximal inhibitory concentration (IC50) was ≤ 0.5 µM.

Take `CNc1cc2nc3c(cnn13)C(=O)NCC(C)Oc1cccc(c1)N2` (stereo not shown) [Compound 37, (1^3E,1^4E)-5-methyl-1^7-(methylamino)-4-oxa-2,7-diaza-1(5,3)-pyrazolo[1,5-a]pyrimidina-3(1,3)-benzenacyclooctaphan-8-one]: the half-inhibitory concentration (IC50) fell in the range of 1 to 10 µM.

`CNc1cc2nc3c(cnn13)C(=O)NC(C)COc1ccccc1N2` (stereo not shown) [Compound 36, (1^3E,1^4E)-6-methyl-1^7-(methylamino)-4-oxa-2,7-diaza-1(5,3)-pyrazolo[1,5-a]pyrimidina-3(1,2)-benzenacyclooctaphan-8-one] yielded a half-maximal inhibitory concentration (IC50) of 0.1 to 1 µM.

In the case of `CNc1cc2nc3c(cnn13)C(=O)NCCC(=O)c1cccc(c1)N2` [Compound 44, (1^3E,1^4E)-1^7-(methylamino)-2,7-diaza-1(5,3)-pyrazolo[1,5-a]pyrimidina-3(1,3)-benzenacyclooctaphane-4,8-dione], the IC50 is 1 to 10 µM.

In turn, `CNc1cc2nc3c(cnn13)C(=O)NCCOc1cc(C)cc(c1)N2` [Compound 26, (1^3E,1^4E)-3^5-methyl-1^7-(methylamino)-4-oxa-2,7-diaza-1(5,3)-pyrazolo[1,5-a]pyrimidina-3(1,3)-benzenacyclooctaphan-8-one] came in with an IC50 of 0.1 to 1 µM.

As for `CNc1cc2nc3c(cnn13)C(=O)NCCOc1cc(c(F)cc1C)N2` [Compound 39, (1^3E,1^4E)-3^6-fluoro-34-methyl-1^7-(methylamino)-4-oxa-2,7-diaza-1(5,3)-pyrazolo[1,5-a]pyrimidina-3(1,3)-benzenacyclooctaphan-8-one], the IC50 is 1 to 10 µM.

Molecule `CNc1cc2nn3c(cnc13)C(=O)NCCOc1cccc(c1)N2` [Compound 12, (E)-1^8-(methylamino)-4-oxa-2,7-diaza-1(6,3)-imidazo[1,2-b]pyridazina-3(1,3)-benzenacyclooctaphan-8-one] came in with an IC50 of 0.1 to 1 µM.

Molecule `CNc1cc2nc3c(cnn13)C(=O)NC(C)COc1cccc(c1)N2` (stereo not shown) [Compound 25, (1^3E,1^4E)-6-methyl-1^7-(methylamino)-4-oxa-2,7-diaza-1(5,3)-pyrazolo[1,5-a]pyrimidina-3(1,3)-benzenacyclooctaphan-8-one] yielded a 50% inhibitory concentration (IC50) of 0.1 to 1 µM.

Take `[2H]C([2H])([2H])Nc1cc2nc3c(cnn13)C(=O)NCCOc1cccc(c1)N2` [Compound 14, (1^3E,1^4E)-1^7-((methyl-d3)amino)-4-oxa-2,7-diaza-1(5,3)-pyrazolo[1,5-a]pyrimidina-3(1,3)-benzenacyclooctaphan-8-one]: the concentration for half-maximal inhibition (IC50) is ≤ 0.5 µM.

As to `CNc1cc2nc3c(cnn13)C(=O)NCCOc1ccccc1N2` [Compound 20, (1^3E,1^4E)-1^7-(methylamino)-4-oxa-2,7-diaza-1(5,3)-pyrazolo[1,5-a]pyrimidina-3(1,2)-benzenacyclooctaphan-8-one], the IC50 is 0.1 to 1 µM.

`CNc1cc2nc3c(cnn13)C(=O)NCCOc1cc(ccc1Cl)N2` [Compound 23, (1^3E,1^4E)-3^4-chloro-1^7-(methylamino)-4-oxa-2,7-diaza-1(5,3)-pyrazolo[1,5-a]pyrimidina-3(1,3)-benzenacyclooctaphan-8-one] had a half-maximal inhibitory concentration (IC50) of 0.1 to 1 µM.
